Measurements taken from patent US9101638B2, “Boronic acid derivatives and therapeutic uses thereof” (Rempex Pharmaceuticals, Inc., priority 2013, dated 2015).
Where two headings read alike, the source gives them in different places.

Tests used:
[1] = system: KP1005 (CTX-M-14); assay: Potentiation of aztreonam, strain KP1005; format: cell-based
[2] = system: KP1009 (CTX-M-15); assay: Potentiation of aztreonam, strain KP1009; format: cell-based
[3] = system: ec308 (SHV-5); assay: Potentiation of aztreonam, strain ec308; format: cell-based; settings: minimum BLI concentration inhibiting growth with 4 μg/mL aztreonam
[4] = system: ec302 (TEM-10); assay: Potentiation of aztreonam, strain ec302; format: cell-based
[5] = system: KP1004 (K-2); assay: Potentiation of aztreonam, strain KP1004; format: cell-based; settings: minimum BLI concentration inhibiting growth with 4 μg/mL aztreonam
[6] = system: ECL1002; assay: Potentiation of aztreonam, strain ECL1002; format: cell-based; settings: minimum BLI concentration inhibiting growth with 4 μg/mL aztreonam
[7] = system: EC1010 (CMY-6); assay: Potentiation of aztreonam, strain EC1010; format: cell-based
[8] = system: ec308 (SHV-5); assay: Potentiation of tigemonam, strain ec308; format: cell-based; settings: minimum BLI concentration inhibiting growth with 4 μg/mL tigemonam
[9] = system: ec302 (TEM-10); assay: Potentiation of tigemonam, strain ec302; format: cell-based
[10] = system: EC1010 (CMY-6); format: cell-based
[11] = molecular target: CTX-M-14 (Escherichia coli, UniProt Q9L5C7); assay: Inhibition of nitrocefin cleavage by purified CTX-M-14; format: biochemical; settings: nitrocefin reporter substrate, purified enzyme; read-out: Ki (CTX-M-14, NCF)
Description: (§1) Purified enzymes were mixed with various concentrations of inhibitors in reaction buffer and incubated for 10 min at room temperature. Nitrocefin was added and substrate cleavage profiles were recorded at 490 nm every 10 sec for 10 min.

[12] = molecular target: SHV-12 (Klebsiella pneumoniae, UniProt P0AD64, E235K/G234S/L31Q); assay: Inhibition of nitrocefin cleavage by purified SHV-12; format: biochemical; settings: nitrocefin reporter substrate, purified enzyme; read-out: Ki (SHV-12, NCF)
Description: as §1

[13] = system: PAM1032/KPC-2; assay: Biapenem potentiation in PAM1032/KPC-2 (MexAB-OprM overexpressed); format: cell-based, Pseudomonas aeruginosa
Description: (§2) Efflux of BLIs from Pseudomonas aeruginosa by the MexAB-OprM efflux pump was also evaluated. […] Due to expression of KPC-2 both strains became resistant to biapenem. […] Potency of BLIs to potentiate biapenem in these strains was determined. […] The ratio of MPC64 values for each BLI in PAM1032/KPC-2 (efflux proficient) and PAM1154/KPC-2 (efflux deficient) was determined to generate the Efflux Index (EI).

[14] = system: PAM1154/KPC-2; assay: Biapenem potentiation in PAM1154/KPC-2 (MexAB-OprM lacking); format: cell-based, Pseudomonas aeruginosa
Description: as §2

[15] = system: KP1009 (CTX-M-15); assay: Potentiation of tigemonam, strain KP1009; settings: minimum BLI concentration inhibiting growth with 4 μg/mL tigemonam
[16] = molecular target: KPC-2 (Klebsiella pneumoniae, UniProt Q9F663); assay: Inhibition of nitrocefin cleavage by purified KPC-2; format: biochemical; settings: nitrocefin reporter substrate, purified enzyme; read-out: Ki (KPC-2, NCF)
Description: as §1

[17] = molecular target: OXA-48 (Klebsiella pneumoniae, UniProt Q6XEC0); assay: Inhibition of nitrocefin cleavage by purified OXA-48; format: biochemical; settings: nitrocefin reporter substrate, purified enzyme; read-out: Ki (OXA-48, NCF)
Description: as §1

[18] = molecular target: T1, CathepsinA (Homo sapiens, UniProt P10619); assay: Serine protease inhibition: cathepsin A; format: biochemical, mammalian; settings: Table 8B; read-out: IC50 CathepsinA
T1 construct: purchased R&D Systems 1049-SE
T1 sequence (P10619 29-480): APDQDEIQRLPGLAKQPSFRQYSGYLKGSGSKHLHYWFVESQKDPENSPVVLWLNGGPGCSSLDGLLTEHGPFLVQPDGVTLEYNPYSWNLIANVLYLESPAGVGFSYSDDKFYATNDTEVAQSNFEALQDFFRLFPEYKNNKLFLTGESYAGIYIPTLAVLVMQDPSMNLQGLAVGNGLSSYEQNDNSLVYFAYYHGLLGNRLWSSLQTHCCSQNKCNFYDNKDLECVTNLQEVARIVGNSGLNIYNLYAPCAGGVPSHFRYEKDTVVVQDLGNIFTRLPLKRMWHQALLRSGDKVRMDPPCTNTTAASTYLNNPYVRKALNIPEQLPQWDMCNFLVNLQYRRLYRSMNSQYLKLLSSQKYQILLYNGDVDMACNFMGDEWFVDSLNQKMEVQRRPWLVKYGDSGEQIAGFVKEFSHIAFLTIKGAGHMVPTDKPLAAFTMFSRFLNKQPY
Description: (§3) The effect of selected BLIs on the enzymatic activity of some common mammalian serine proteases was evaluated.
(§4) 50 μl of the diluted enzyme was mixed with 50 μl of inhibitor at various concentrations and 50 μl of corresponding buffer (Table 7). Reaction mixtures were incubated for 10 min at 37° C. Subsequently, 50 μl of corresponding substrate (Table 7) was added and absorbance or fluorescence was monitored for 30 min on SpectraMax M2 plate reader (Molecular Devices). 4-(2-Aminoethyl)benzenesulfonyl fluoride hydrochloride (AEBSF) and leupeptin were used as positive controls. Rates of reaction were calculated and presented relative to “no treatment” control.

[19] = molecular target: T2, CathepsinG (Homo sapiens, UniProt P08311); assay: Serine protease inhibition: cathepsin G; format: biochemical, mammalian; settings: Table 8B
T2 construct: purchased EMD Millipore 219373
T2 sequence (P08311 21-244): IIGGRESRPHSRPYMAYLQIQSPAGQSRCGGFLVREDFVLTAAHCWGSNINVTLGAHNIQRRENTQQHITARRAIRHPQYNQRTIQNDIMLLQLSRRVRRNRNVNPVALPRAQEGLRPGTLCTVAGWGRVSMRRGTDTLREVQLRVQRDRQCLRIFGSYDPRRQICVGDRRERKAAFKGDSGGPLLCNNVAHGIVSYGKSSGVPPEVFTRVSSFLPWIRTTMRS
Description: as §3, §4

[20] = BLI potency to decrease biapenem MIC 64-fold, 32 to 0.5 μg/ml, efflux proficient strain

Chain of SHV-12 (P0AD64 22-286 L31Q/G234S/E235K): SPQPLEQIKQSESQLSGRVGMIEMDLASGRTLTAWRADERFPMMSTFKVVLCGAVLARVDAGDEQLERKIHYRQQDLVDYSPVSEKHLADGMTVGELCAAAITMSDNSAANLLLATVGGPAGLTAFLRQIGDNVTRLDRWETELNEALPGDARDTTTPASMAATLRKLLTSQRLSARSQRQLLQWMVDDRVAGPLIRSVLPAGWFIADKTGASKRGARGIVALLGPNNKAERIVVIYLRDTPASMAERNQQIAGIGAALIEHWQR
Chain of KPC-2 (Q9F663 25-293, looked up, species assumed): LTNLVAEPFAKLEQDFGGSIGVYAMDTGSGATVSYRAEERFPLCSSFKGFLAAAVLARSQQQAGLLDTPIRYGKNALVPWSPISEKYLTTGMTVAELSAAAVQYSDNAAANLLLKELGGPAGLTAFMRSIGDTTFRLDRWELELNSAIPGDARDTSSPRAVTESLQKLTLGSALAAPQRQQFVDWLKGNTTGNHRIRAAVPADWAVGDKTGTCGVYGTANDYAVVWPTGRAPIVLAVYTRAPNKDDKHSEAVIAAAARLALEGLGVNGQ
Chain of CTX-M-14 (Q9L5C7 entry or part of it): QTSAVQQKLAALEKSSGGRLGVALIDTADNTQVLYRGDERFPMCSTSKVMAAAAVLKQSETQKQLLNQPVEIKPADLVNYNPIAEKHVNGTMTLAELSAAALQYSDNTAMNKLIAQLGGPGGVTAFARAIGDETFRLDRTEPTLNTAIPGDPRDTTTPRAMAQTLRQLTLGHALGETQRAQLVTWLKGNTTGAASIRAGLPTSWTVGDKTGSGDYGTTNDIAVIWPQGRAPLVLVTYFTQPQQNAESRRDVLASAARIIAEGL
Chain of OXA-48 (Q6XEC0 23-265 limits assumed): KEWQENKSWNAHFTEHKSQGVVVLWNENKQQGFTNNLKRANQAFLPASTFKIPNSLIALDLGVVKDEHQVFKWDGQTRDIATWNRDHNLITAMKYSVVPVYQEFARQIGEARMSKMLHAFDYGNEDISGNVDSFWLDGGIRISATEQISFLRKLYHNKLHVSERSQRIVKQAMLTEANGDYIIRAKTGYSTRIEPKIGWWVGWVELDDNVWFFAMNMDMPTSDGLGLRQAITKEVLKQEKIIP

Row | Structure (SMILES) | AZT MPC4 CTX-M-14 KP1005 [1] | AZT MPC4 CTX-M-15 KP1009 [2] | AZT MPC4 SHV-5 ec308 [3] | AZT MPC4 TEM-10 ec302 [4] | AZT MPC4 K-2 KP1004 [5] | AZT MPC4 ECL1002 [6] | AZT MPC4 CMY-6 EC1010 [7] | TIG MPC4 SHV-5 ec308 [8] | TIG MPC4 TEM-10 ec302 [9] | TIG MPC4 CMY-6 EC1010 [10] | Ki [11] [nM] | Ki [12] [nM] | PAM1032/KPC-2 Biapenem MPC64 [13] | PAM1154/KPC-2 Biapenem MPC64 [14] | TIG MPC4 CTX-M-15 KP1009 [15] | Ki [16] [nM] | Ki [17] [nM] | PAM1032/KPC-2 Biapenem MPC64 [13, 20] | IC50 [18] [nM] | IC50 [19] [nM]
1 | NC(=O)N[C@H]1Cc2cccc(C(=O)O)c2OB1O [Compound 6, (R)-2-hydroxy-3-ureido-3,4-dihydro-2H-benzo[e][1,2]oxaborinine-8-carboxylic acid] | Y (key: X = MIC of less than 1 μg/mL; Y = MIC of 1 μg/mL to 10 μg/mL; Z = MIC of greater than 10 μg/mL) | Y (key: X = MIC of less than 1 μg/mL; Y = MIC of 1 μg/mL to 10 μg/mL; Z = MIC of greater than 10 μg/mL) | Y (Y = MIC of 1 μg/mL to 10 μg/mL) | Z (key: X = MIC of less than 1 μg/mL; Y = MIC of 1 μg/mL to 10 μg/mL; Z = MIC of greater than 10 μg/mL) | X (X = MIC of less than 1 μg/mL) | Z (Z = MIC of greater than 10 μg/mL) | Y (key: X = MIC of less than 1 μg/mL; Y = MIC of 1 μg/mL to 10 μg/mL; Z = MIC of greater than 10 μg/mL) | Z (Z = MIC of greater than 10 μg/mL) | Z (key: X = MIC of less than 1 μg/mL; Y = MIC of 1 μg/mL to 10 μg/mL; Z = MIC of greater than 10 μg/mL) | X (key: X = MIC of less than 1 μg/mL; Y = MIC of 1 μg/mL to 10 μg/mL; Z = MIC of greater than 10 μg/mL) | 1 to 10 | 1 to 10 | X (key: X = Less than 10; Y = 10 to 40; Z Greater than 40) | X (key: X = Less than 10; Y = 10 to 40; Z Greater than 40) | Y (Y = MIC of 1 μg/mL to 10 μg/mL) | – | – | – | – | –
2 | CSCC(=O)N[C@H]1Cc2cccc(C(=O)O)c2OB1O [Compound 13, (R)-2-hydroxy-3-(2-(methylthio)acetamido)-3,4-dihydro-2H-benzo[e][1,2]oxaborinine-8-carboxylic acid] | X (key: X = MIC of less than 1 μg/mL; Y = MIC of 1 μg/mL to 10 μg/mL; Z = MIC of greater than 10 μg/mL) | – | X (X = MIC of less than 1 μg/mL) | Y (key: X = MIC of less than 1 μg/mL; Y = MIC of 1 μg/mL to 10 μg/mL; Z = MIC of greater than 10 μg/mL) | X (X = MIC of less than 1 μg/mL) | X (X = MIC of less than 1 μg/mL) | – | X (X = MIC of less than 1 μg/mL) | – | X (key: X = MIC of less than 1 μg/mL; Y = MIC of 1 μg/mL to 10 μg/mL; Z = MIC of greater than 10 μg/mL) | < 1 | – | – | X (key: X = Less than 10; Y = 10 to 40; Z Greater than 40) | X (X = MIC of less than 1 μg/mL) | > 10 | < 1 | Y (Y = 10 to 40) | – | –
3 | O=C(N[C@H]1Cc2cccc(C(=O)O)c2OB1O)c1cncc(F)c1 [Compound 14, (R)-3-(5-fluoronicotinamido)-2-hydroxy-3,4-dihydro-2H-benzo[e][1,2]oxaborinine-8-carboxylic acid] | Y (key: X = MIC of less than 1 μg/mL; Y = MIC of 1 μg/mL to 10 μg/mL; Z = MIC of greater than 10 μg/mL) | Y (key: X = MIC of less than 1 μg/mL; Y = MIC of 1 μg/mL to 10 μg/mL; Z = MIC of greater than 10 μg/mL) | Y (Y = MIC of 1 μg/mL to 10 μg/mL) | Y (key: X = MIC of less than 1 μg/mL; Y = MIC of 1 μg/mL to 10 μg/mL; Z = MIC of greater than 10 μg/mL) | Y (Y = MIC of 1 μg/mL to 10 μg/mL) | Y (Y = MIC of 1 μg/mL to 10 μg/mL) | Y (key: X = MIC of less than 1 μg/mL; Y = MIC of 1 μg/mL to 10 μg/mL; Z = MIC of greater than 10 μg/mL) | Y (Y = MIC of 1 μg/mL to 10 μg/mL) | Y (key: X = MIC of less than 1 μg/mL; Y = MIC of 1 μg/mL to 10 μg/mL; Z = MIC of greater than 10 μg/mL) | Y (key: X = MIC of less than 1 μg/mL; Y = MIC of 1 μg/mL to 10 μg/mL; Z = MIC of greater than 10 μg/mL) | < 1 | < 1 | – | X (key: X = Less than 10; Y = 10 to 40; Z Greater than 40) | Y (Y = MIC of 1 μg/mL to 10 μg/mL) | > 10 | – | Z (Z Greater than 40) | 15000 to 500000 | 15000 to 500000
4 | O=C(N[C@H]1Cc2cccc(C(=O)O)c2OB1O)c1cncnc1 [Compound 18, (R)-2-hydroxy-3-(pyrimidine-5-carboxamido)-3,4-dihydro-2H-benzo[e][1,2]oxaborinine-8-carboxylic acid] | Y (key: X = MIC of less than 1 μg/mL; Y = MIC of 1 μg/mL to 10 μg/mL; Z = MIC of greater than 10 μg/mL) | Y (key: X = MIC of less than 1 μg/mL; Y = MIC of 1 μg/mL to 10 μg/mL; Z = MIC of greater than 10 μg/mL) | Y (Y = MIC of 1 μg/mL to 10 μg/mL) | X (key: X = MIC of less than 1 μg/mL; Y = MIC of 1 μg/mL to 10 μg/mL; Z = MIC of greater than 10 μg/mL) | Y (Y = MIC of 1 μg/mL to 10 μg/mL) | Y (Y = MIC of 1 μg/mL to 10 μg/mL) | Y (key: X = MIC of less than 1 μg/mL; Y = MIC of 1 μg/mL to 10 μg/mL; Z = MIC of greater than 10 μg/mL) | Y (Y = MIC of 1 μg/mL to 10 μg/mL) | Y (key: X = MIC of less than 1 μg/mL; Y = MIC of 1 μg/mL to 10 μg/mL; Z = MIC of greater than 10 μg/mL) | X (key: X = MIC of less than 1 μg/mL; Y = MIC of 1 μg/mL to 10 μg/mL; Z = MIC of greater than 10 μg/mL) | – | < 1 | – | X (key: X = Less than 10; Y = 10 to 40; Z Greater than 40) | Y (Y = MIC of 1 μg/mL to 10 μg/mL) | > 10 | – | Z (Z Greater than 40) | – | –
